Source: ChEMBL document CHEMBL3045195, “Comparison of the activity of non-steroidal ecdysone agonists between dipteran and lepidopteran insects, using cell-based EcR reporter assays” (Pest Manag Sci, 2010)
The source made the active and inactive calls. No cut-off for these calls is given here.

Tests used:
Type in all cases: cell-based
Ecdysone receptor [1] = target: T1, Ecdysone receptor (Drosophila melanogaster, UniProt P20153+P34021); assay: (§1) Agonist activity at ecdysone receptor in Drosophila melanogaster S2 cells after 24 hr by luciferase reporter gene assay
T1 sequence (P34021 whole entry): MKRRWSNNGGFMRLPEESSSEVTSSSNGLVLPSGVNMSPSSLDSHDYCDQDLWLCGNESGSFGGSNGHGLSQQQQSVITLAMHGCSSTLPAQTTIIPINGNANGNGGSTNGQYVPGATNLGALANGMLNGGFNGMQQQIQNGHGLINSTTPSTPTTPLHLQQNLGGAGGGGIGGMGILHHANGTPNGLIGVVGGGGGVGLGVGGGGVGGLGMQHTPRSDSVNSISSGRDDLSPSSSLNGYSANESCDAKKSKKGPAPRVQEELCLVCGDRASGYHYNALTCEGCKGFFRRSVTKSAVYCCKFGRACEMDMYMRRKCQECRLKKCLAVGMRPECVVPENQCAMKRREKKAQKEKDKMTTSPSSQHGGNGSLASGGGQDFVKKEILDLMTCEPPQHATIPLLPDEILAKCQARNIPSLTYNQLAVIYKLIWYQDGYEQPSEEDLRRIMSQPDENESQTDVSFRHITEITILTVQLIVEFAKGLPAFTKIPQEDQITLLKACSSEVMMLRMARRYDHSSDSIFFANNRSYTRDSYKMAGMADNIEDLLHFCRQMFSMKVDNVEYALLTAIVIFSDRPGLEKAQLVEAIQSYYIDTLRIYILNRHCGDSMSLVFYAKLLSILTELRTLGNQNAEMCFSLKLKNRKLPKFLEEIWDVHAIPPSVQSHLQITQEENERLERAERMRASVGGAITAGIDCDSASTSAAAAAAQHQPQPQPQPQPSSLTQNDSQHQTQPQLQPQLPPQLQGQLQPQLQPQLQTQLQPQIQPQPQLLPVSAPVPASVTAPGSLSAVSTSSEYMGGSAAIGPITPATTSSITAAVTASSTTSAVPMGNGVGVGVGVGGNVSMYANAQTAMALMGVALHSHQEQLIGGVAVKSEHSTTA
T1 sequence (P20153 whole entry): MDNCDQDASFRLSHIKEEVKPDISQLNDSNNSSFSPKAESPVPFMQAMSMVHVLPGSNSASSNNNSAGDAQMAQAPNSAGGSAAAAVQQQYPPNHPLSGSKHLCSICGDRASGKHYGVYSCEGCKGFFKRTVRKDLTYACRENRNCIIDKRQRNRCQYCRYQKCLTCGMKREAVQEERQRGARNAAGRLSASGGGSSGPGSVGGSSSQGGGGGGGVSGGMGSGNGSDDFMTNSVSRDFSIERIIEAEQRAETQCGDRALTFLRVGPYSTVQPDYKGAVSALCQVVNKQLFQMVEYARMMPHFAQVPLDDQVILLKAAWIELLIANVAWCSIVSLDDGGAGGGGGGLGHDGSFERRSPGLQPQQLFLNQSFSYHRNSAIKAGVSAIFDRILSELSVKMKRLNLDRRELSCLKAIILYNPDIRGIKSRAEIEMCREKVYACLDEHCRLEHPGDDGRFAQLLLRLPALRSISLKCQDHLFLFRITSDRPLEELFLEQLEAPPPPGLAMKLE

Ecdysone receptor [2] = target: T2, Ecdysone receptor (Bombyx mori, UniProt P49881); assay: Agonist activity at ecdysone receptor in Bombyx mori Bm5 cells after 24 hr by luciferase reporter gene assay
T2 sequence (P49881 whole entry): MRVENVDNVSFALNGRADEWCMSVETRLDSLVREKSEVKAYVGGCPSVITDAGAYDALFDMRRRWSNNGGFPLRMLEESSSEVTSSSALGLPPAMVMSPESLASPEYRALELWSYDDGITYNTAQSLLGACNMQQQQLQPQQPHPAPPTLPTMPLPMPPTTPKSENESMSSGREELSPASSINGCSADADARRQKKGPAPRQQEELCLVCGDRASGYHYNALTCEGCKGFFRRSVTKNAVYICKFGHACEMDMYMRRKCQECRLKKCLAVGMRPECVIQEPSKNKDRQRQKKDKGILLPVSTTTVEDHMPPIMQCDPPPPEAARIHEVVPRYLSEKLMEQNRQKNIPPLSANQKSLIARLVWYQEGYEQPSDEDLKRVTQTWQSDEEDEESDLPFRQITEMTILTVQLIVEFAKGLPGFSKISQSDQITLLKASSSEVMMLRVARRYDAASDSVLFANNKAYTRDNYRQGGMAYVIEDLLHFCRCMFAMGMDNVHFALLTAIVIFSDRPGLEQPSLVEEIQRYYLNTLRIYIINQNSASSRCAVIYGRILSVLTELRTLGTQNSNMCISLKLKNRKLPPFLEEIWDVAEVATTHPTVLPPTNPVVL

[3] = target: T3, Ecdysone receptor (Drosophila melanogaster) (UniProt P34021+P20153); assay: Agonist activity at ecdysone receptor in Drosophila melanogaster S2 cells at 100 uM after 24 hr by luciferase reporter gene assay relative to 20-hydroxyecdysone
[4] = target: T3, Ecdysone receptor (Drosophila melanogaster); assay: as §1

| EC50 (Ecdysone receptor [1]) | EC50 (Ecdysone receptor [2]) | Efficacy [3] | Compound | pEC50 [4] |
| --- | --- | --- | --- | --- |
| 13.2 µM | 0.191 µM | 80% | CC(C)(C)N(NC(=O)c1cccc(Br)c1)C(=O)c1ccccc1Cl | – |
| – | 11.7 µM | – | CCCCCCC(=O)N(NC(=O)c1ccc(CC)cc1)C(C)(C)C | inactive |
| – | 46.8 µM | – | CC(C)(C)N(NC(=O)c1ccccc1)C(=O)C1CCCCC1 | inactive |
| 25.7 µM | 0.0692 µM | 76% | CC(C)(C)N(NC(=O)c1cccc(F)c1)C(=O)c1ccccc1Cl | – |
| 81.3 µM | 0.115 µM | 52% | CC(C)(C)N(NC(=O)c1ccc(Cl)cc1)C(=O)c1ccccc1Cl | – |
| 16.6 µM | 0.0155 µM | 77% | COc1cccc(C(=O)NN(C(=O)c2ccccc2Cl)C(C)(C)C)c1C | – |
| 12 µM | 0.0525 µM | 71% | CCOc1cccc(C(=O)NN(C(=O)c2cc(C)cc(C)c2)C(C)(C)C)c1C | – |
| 66.1 µM | 0.0871 µM | 60% | Cc1ccc(C(=O)NN(C(=O)c2ccccc2Cl)C(C)(C)C)cc1C | – |
| 11.5 µM | 0.02 µM | 76% | Cc1cccc(C(=O)NN(C(=O)c2ccccc2Cl)C(C)(C)C)c1C | – |
| – | 14.5 µM | – | Cc1cc(C)cc(C(=O)NN(C(=O)CCC(C)C)C(C)(C)C)c1 | inactive |
| 60.3 µM | 0.316 µM | 59% | CC(C)(C)N(NC(=O)c1ccccc1Br)C(=O)c1ccccc1Cl | – |
| 107 µM | 1.62 µM | 46% | Cc1ccc(C)c(C(=O)NN(C(=O)c2ccccc2Cl)C(C)(C)C)c1 | – |
| > 100 µM | 25.7 µM | 6% | O=C(NN(C(=O)c1ccccc1)c1ccccc1)c1ccccc1 | – |
| 87.1 µM | 1.29 µM | 54% | CC(C)(C)N(NC(=O)c1ccccc1I)C(=O)c1ccccc1Cl | – |
| 45.7 µM | 0.0661 µM | 60% | COc1cccc(C(=O)NN(C(=O)c2cc(C)cc(C)c2)C(C)(C)C)c1 | – |
| 36.3 µM | 0.955 µM | 67% | CC(C)(C)N(NC(=O)c1cccc(C#N)c1)C(=O)c1ccccc1Cl | – |
| – | > 100 µM | – | CN(NC(=O)c1ccccc1)C(=O)c1ccccc1 | inactive |
| – | 0.0977 µM | – | CCCCCCCC(=O)NN(C(=O)c1cc(C)cc(C)c1)C(C)(C)C | inactive |
| 7.76 µM | 0.00933 µM | 74% | CC(C)(C)N(NC(=O)c1cccc(Cl)c1Cl)C(=O)c1ccccc1Cl | – |
| 93.3 µM | 0.603 µM | 52% | CC(C)(C)N(NC(=O)c1ccc(C#N)cc1)C(=O)c1ccccc1Cl | – |
| 107 µM | 0.603 µM | 48% | Cc1cccc(C(=O)NN(C(=O)c2ccccc2Cl)C(C)(C)C)c1 | – |
| 97.7 µM | 0.589 µM | 50% | CCc1ccccc1C(=O)N(NC(=O)c1ccccc1)C(C)(C)C | – |
| 72.4 µM | 0.0525 µM | 58% | COc1cccc(C(=O)NN(C(=O)c2ccccc2Cl)C(C)(C)C)c1 | – |

Further lines, the molecule ahead of its results:

| Compound | EC50 (Ecdysone receptor [1]) | EC50 (Ecdysone receptor [2]) | Efficacy [3] | pEC50 [4] |
| --- | --- | --- | --- | --- |
| CC(C)(C)N(NC(=O)c1ccc(F)cc1)C(=O)c1ccccc1Cl | 37.2 µM | 0.389 µM | 62% | – |
| CCc1ccc(C(=O)NC(C(=O)c2cc(C)cc(C)c2)C(C)(C)C)cc1 (racemic) | – | – | – | inactive |
| Cc1cc(C)cc(C(=O)N(NC(=O)CCC(C)C)C(C)(C)C)c1 | > 100 µM | 0.0912 µM | 35% | – |
| CCCCCCC(=O)N(NC(=O)c1ccccc1)C(C)(C)C | – | 7.24 µM | – | inactive |
| COc1ccc(C(=O)NN(C(=O)c2ccccc2Cl)C(C)(C)C)cc1 | 11.2 µM | 0.0513 µM | 112% | – |
| CCc1ccc(C(=O)NN(C(=O)CCC(C)C)C(C)(C)C)cc1 | – | 0.832 µM | – | inactive |
| CC(C)(C)N(NC(=O)c1ccccc1)C(=O)c1ccc(Cl)cc1Cl | 148 µM | 0.117 µM | 40% | – |
| CCCCCC(=O)N(NC(=O)c1ccc(CC)cc1)C(C)(C)C | – | 2.82 µM | – | inactive |
| CC(C)(C)N(Cc1ccccc1)NC(=O)c1ccccc1 | > 100 µM | – | 1% | – |
| CCc1ccc(C(=O)NN(C(=O)c2ccccc2)C(C)(C)C)cc1 | 5.5 µM | 0.0049 µM | 52% | – |
| CCC(CC)(NC(=O)c1ccc2c(c1C)CCCO2)C(=O)c1cc(C)cc(C)c1 | – | – | – | inactive |
| CCCCCC(=O)NN(C(=O)c1cc(C)cc(C)c1)C(C)(C)C | > 100 µM | 0.0794 µM | 36% | – |
| CC(C)CN(NC(=O)c1ccccc1)C(=O)c1ccccc1 | > 100 µM | 2.88 µM | 33% | – |
| CCc1ccc(C(=O)NN(C(=O)c2cccc3ccccc23)C(C)(C)C)cc1 | 10.5 µM | 0.0132 µM | 53% | – |
| Cc1cc(C)c(Cl)c(C(=O)N(NC(=O)c2ccccc2)C(C)(C)C)c1 | > 100 µM | – | 2% | – |
| CC(C)c1ccc(C(=O)NN(C(=O)c2ccccc2Cl)C(C)(C)C)cc1 | 12 µM | 0.0245 µM | 88% | – |
| Cc1cc(C)cc(C(=O)N(NC(=O)c2ccccc2)C(C)(C)C)c1 | 66.1 µM | 0.0692 µM | 57% | – |
| CC(C)(C)N(NC(=O)c1ccccc1F)C(=O)c1ccccc1Cl | 33.9 µM | 0.0513 µM | 73% | – |
| CCCCN(C(=O)c1ccccc1)N(C(=O)c1ccccc1)C(C)(C)C | – | > 100 µM | – | inactive |
| CCCCCCC(=O)NN(C(=O)c1ccccc1Cl)C(C)(C)C | > 100 µM | 0.741 µM | 10% | – |
| CCc1ccc(C(=O)NN(C(=O)C2CCCCC2)C(C)(C)C)cc1 | – | 9.33 µM | – | inactive |
| CCCCCCCCCC(=O)NN(C(=O)c1cc(C)cc(C)c1)C(C)(C)C | – | 1.55 µM | – | inactive |
| O=C(NN(C(=O)c1ccccc1)C1CCCCC1)c1ccccc1 | > 100 µM | 0.891 µM | 18% | – |
| Cc1ccccc1C(=O)NN(C(=O)c1ccccc1Cl)C(C)(C)C | 25.7 µM | 0.0724 µM | 83% | – |
| Cc1cc(C)cc(C(=O)NN(C(=O)CCCC(C)C)C(C)(C)C)c1 | – | > 100 µM | – | inactive |
| CCCCN(NC(=O)c1ccccc1)C(=O)c1ccccc1 | > 100 µM | 7.08 µM | 4% | – |
| Cc1cc(C)cc(C(=O)C2(NC(=O)C(F)(F)F)CCCCC2)c1 | – | – | – | inactive |
| CCc1ccc(C(=O)NC(CC)(CC)C(=O)c2cc(C)cc(C)c2)cc1 | – | – | – | inactive |
| CCc1ccc(C(=O)NN(C(=O)C2CC=CCC2)C(C)(C)C)cc1 (configuration not stated) | > 100 µM | 1 µM | 1% | – |
| O=C(NN(CC1CCCCC1)C(=O)c1ccccc1)c1ccccc1 | > 100 µM | 1.7 µM | 1% | – |
